Reference: patent US20090264291A1, “COMPOSITIONS COMPRISING ANTI-PROLIFERATIVE AGENTS AND USE THEREOF” (priority 1998, published 2009)
Values joined by “and” are separate entries in the source; they are usually repeats but may differ in a detail not shown here. Equal entries are not always repeated.

Test system: cells
Assay: Cytotoxicity by agarose diffusion test
Type: cell-based
Method: Cytotoxicity was assessed by an agarose diffusion test, in which the test material is applied to the surface of agarose gel, wherein the agarose gel is in contact with cells. Cytotoxic test material causes cell lysis. Live cells incorporate MTT and transform it to formazan as described herein above; cytotoxicity potential is given according to the mean area of non-stained cells, i.e., lysed cells, by the following scale:
Two independent tests were performed in duplicate (total of 4 Petri dishes). Cultured cell were trypsinized and counted. 2×10^6 cells in 4 ml of DMEM medium were seeded in each 50 mm diameter Petri dish. The dishes were incubated for 24 h+1 h at 37° C., 5% CO2, before they were covered with 4% agarose gel, prepared with complete DMEM medium. The test compound (tomato derived extract) was applied on top of a 6 mm disc of filter paper that was placed in the center of the agarose gel surface.
After 23 h-25 h of contact at 37° C. and 5% CO2 the filter paper with the test compound and the agarose gel were gently removed. The cells were rinsed carefully with PBS by a pipette. The liquid was then removed, and 2 ml solution of MTT at 0.5 mg/ml, prepared extemporaneously from a source solution of 5 mg/ml, was added to each dish. The dishes were then incubated for 0.5-1.5 h at 37° C. and 5% CO2. After removal of the excess dye, living cells were colored while lysed cells appeared as an uncolored zone. Each dish was placed on a light surface and the largest and the smallest diameters of the lysis area, estimated visually, were measured by a measuring ruler (mm) on a graph paper, and the mean diameter was calculated.
The value of the diameter of cell lysis taken into account for the determination of cytotoxicity corresponded to the arithmetical mean of the mean diameter defined for the 2 dishes of each test (MD). Pure complete DMEM served as a negative control (no lysis should occur). 3% SDS served as a positive control (cells are lysed due to the presence of SDS).

[1] = dishes 1-4, 23 h-25 h of contact

Structure (SMILES): CCCCCCCCCCCCOS(=O)(=O)[O-].[Na+] [3% SDS, SDS]
- MD (mean of the mean diameter for the 2 dishes of each test) (dishes 1 + 2 and 3 + 4): 2.6 cm
- Mean (diameter of lysis) (dishes 1-4): 2.6 cm and 2.5 cm
- Largest diameter (of the lysis area) [1]: 2.5 cm and 2.6 cm
- Smallest diameter (of the lysis area) [1]: 2.4 cm and 2.5 cm
